Assays:
native human SPP (HsSPP) = molecular target: T1, native human SPP (HsSPP) (Homo sapiens, UniProt Q8TCT9); test: gel immunoblot cleavage assay of myc-Prl-PP-FLAG with DDM-solubilised membranes; type: biochemical; conditions: 1 μM myc-Prl-PP-FLAG substrate, 0.25% DDM, 37°C; 10 μM inhibitor
T1 construct: gene HM13; endogenous, untagged, in DDM-solubilised membrane fraction of HEK293T cells
T1 sequence (Q8TCT9 1-377): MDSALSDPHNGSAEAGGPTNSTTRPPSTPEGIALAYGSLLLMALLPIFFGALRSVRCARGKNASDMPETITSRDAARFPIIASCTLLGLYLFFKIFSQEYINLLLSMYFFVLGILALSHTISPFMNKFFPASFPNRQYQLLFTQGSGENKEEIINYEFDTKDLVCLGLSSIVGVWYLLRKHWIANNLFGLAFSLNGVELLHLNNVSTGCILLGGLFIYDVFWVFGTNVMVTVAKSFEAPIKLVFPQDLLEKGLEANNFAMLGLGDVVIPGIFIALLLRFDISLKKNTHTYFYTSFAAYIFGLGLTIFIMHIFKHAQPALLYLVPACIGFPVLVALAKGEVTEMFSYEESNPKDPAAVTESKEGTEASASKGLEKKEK

AtSPP-GFP = molecular target: T2, AtSPP-GFP (Arabidopsis thaliana, UniProt O81062); test: as above; type: biochemical; conditions: 1 μM myc-Prl-PP-FLAG substrate, 0.25% DDM, 37°C, 15 h; 50 μM inhibitor
T2 construct: gene SPP; full length with C-terminal yEGFP-octa-His tag kept, expressed in Saccharomyces cerevisiae BY2777; DDM-solubilised yeast membranes; estimated 65 kDa
T2 sequence (O81062 1-344): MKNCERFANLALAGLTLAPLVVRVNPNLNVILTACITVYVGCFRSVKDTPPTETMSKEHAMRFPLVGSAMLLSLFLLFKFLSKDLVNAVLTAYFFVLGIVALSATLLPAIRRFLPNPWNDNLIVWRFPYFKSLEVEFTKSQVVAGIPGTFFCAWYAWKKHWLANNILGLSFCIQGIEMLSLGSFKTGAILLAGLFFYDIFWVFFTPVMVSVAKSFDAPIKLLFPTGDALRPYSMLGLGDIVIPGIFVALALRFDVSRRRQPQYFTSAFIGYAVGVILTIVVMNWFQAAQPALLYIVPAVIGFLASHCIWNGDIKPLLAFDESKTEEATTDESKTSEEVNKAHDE

## CC(C)C[C@H](NC(=O)OCc1ccccc1)C(=O)N[C@@H](CC(C)C)C(=O)NCC(=O)CNC(=O)[C@H](CC(C)C)NC(=O)[C@H](CC(C)C)NC(=O)OCc1ccccc1 [(Z-LL)2-ketone, 1,3-di-(N-carboxybenzoyl-L-leucyl-L-leucyl) amino acetone]
Native human SPP (HsSPP)
  inhibition at 10 μM: the SPP was inhibited by the (Z-LL)2-ketone
AtSPP-GFP
  inhibition at 50 μM: rate of proteolytic activity of AtSPP-GFP was weak, the activity was inhibited by the (Z-LL)2-ketone

From PMC3710259, “Experimental detection of proteolytic activity in a signal peptide peptidase of Arabidopsis thaliana” (BMC Biochemistry, 2013)
